Where two headings read alike, the source gives them in different places. Starred links: 1 amine or outer side, 2 acyl side, 3 side chain; linkers in the order of their positions; H or OH if unused. Positions of bridges follow the written chain, without caps; N, C: chain ends. Non-standard residues stand in square brackets, D forms with d. Residues, ends and D or L forms follow the SMILES beside them. *: point of attachment. Orn(4R-OH,5R-OCH2CH2NMe3+) = C[N+](C)(C)CCO[C@@H](N[*:3])[C@H](O)C[C@H](N[*:1])C(=O)[*:2]; pTerphenylCO(4''-OnC5H11) = CCCCCOc1ccc(-c2ccc(-c3ccc(C(=O)*)cc3)cc2)cc1; hTyr(3S-OH,4S-OH) = N[C@H](C(=O)O)[C@H](O)[C@@H](O)c1ccc(O)cc1; Pro(3S-OH,4S-Me) = C[C@H]1CN[C@H](C(=O)O)[C@H]1O; Hyp = O=C(O)[C@@H]1C[C@@H](O)CN1
Columns and labels:
[1] = Dropwise addition of CD101 acetate 4 mg/mL solutions to 0.9% saline solution or PBS buffer, observed for drug insolubility; format: physicochemical; settings: 4 mg/mL in 5% dextrose and 0.5% Tween 80, pH 5.4
[2] = PBS drop test of CD101 IV formulations (Example 4); format: physicochemical; settings: 2 mg/mL in 0.50% Tween 80, 0.76% mannitol, 0.125% sodium lactate in 3.5% dextrose solution, pH ~5.5; 0.25 mL into 1 mL PBS
Description: Solubility of CD101-containing formulations with different percentages of Tween 80 (also referred to as polysorbate 80) was evaluated in a “PBS drop test.” This involved preparing a known concentration of CD101 in a formulation and injecting the formulation into PBS to visually examine for precipitation. This test was used to assess if a CD101-containing formulation would remain soluble in blood during IV infusions.
(1) 1.25% Tween 80, 5% mannitol, 0.3% glacial acetic acid, pH ˜4.5
(2) 0.50% Tween 80, 0.76% mannitol, 0.125% sodium lactate in 3.5% dextrose solution, pH ˜5.5
Different concentrations of CD101 acetate were prepared in vehicles (1) and (2) and tested for solubility in the PBS drop test.
Add dropwise the formulated solution into PBS solution (1:4 dilution). Visually observe the resulting solution upon addition for any precipitation.

Sprague Dawley rats = experiment: 14-day repeat-dose intravenous infusion toxicity study; format: in vivo; settings: for Animals that did not receive ten consecutive days of treatment (Days 5-14): females
Description: The primary purpose of this study was to evaluate the toxicity of CD101 when administered intravenously as a 20-minute infusion into the lateral tail vein of Sprague Dawley rats for fourteen consecutive days. A positive control group (Eraxis®) with a similar structure and pharmacodynamic activity was included in the study design.
The test article, CD101 acetate, was a white to off-white powder. The test article was prepared into dosing formulations for intravenous dose administration. One hundred experimentally naïve Sprague Dawley rats (50 males and 50 females), a minimum of 8 weeks old and weighing 255-318 grams (males) and 192-215 (females) at the outset of the study were assigned to treatment groups as shown in Table 7 below:
All animals were dosed on Days 1 through 3 inclusive. As a result of tail vein irritation observed among all study groups, dose administration was suspended on Day 4 to allow the tails to recover. Dosing resumed on Day 5 and continued for a maximum of ten additional days (Days 5 through 14 inclusive). Animals that could no longer be dosed during this time remained on study.
Male and female Sprague Dawley rats were to receive CD101 acetate at doses of 0, 2, 6 and 20 mg/kg/day (Groups 1, 3, 4 and 5, respectively) or Eraxis® (the positive control article, Group 2) at a dose of 40 mg/kg/day, intravenously as a 20 minute infusion into the left or right lateral tail vein for fourteen consecutive days. During the first three treatment days, all animals were dosed with the first vehicle used on this study (1.75% Tween 80/5% Dextrose: Groups 1 and 3-5; 5% Dextrose: Group 2). As a result of the localized tail swelling observed during the first three days of treatment, study Day 4 served as a drug-free day to alleviate tail vein irritation. Dose administration resumed on Day 5 using a new vehicle (5% Mannitol/2.5% Tween 80/0.3% acetic acid: Groups 1 and 3-5; 5% Mannitol/0.3% acetic acid: Group 2) for the remainder of the treatment period (Days 5-14). Those animals that could no longer be dosed because of severe vein irritation were retained on study, untreated, until the end of the study (Day 15).

[3] = Solubility of CD101 acetate in various media; format: physicochemical
Source text: Table 1 below provides the solubility of CD101 acetate in different solutions.

[4] = PBS buffer drop test (Example 3); format: physicochemical
Description: These solutions were tested for solubility in the PBS drop test, which involved adding the solution dropwise into PBS solution (1:4.3 dilution) and visually observing the resulting solution for any precipitation. PBS buffer serves as a surrogate for plasma, and the PBS drop test is used to evaluate the potential for insolubility as the drug enters the bloodstream at the injection site.

In the case of CCCCCOc1ccc(-c2ccc(-c3ccc(C(=O)N[C@H]4C[C@@H](O)[C@@H](OCC[N+](C)(C)C)NC(=O)[C@@H]5[C@@H](O)[C@@H](C)CN5C(=O)[C@H]([C@@H](C)O)NC(=O)[C@H]([C@H](O)[C@@H](O)c5ccc(O)cc5)NC(=O)[C@@H]5C[C@@H](O)CN5C(=O)[C@H]([C@@H](C)O)NC4=O)cc3)cc2)cc1 [CD101 acetate] ({pTerphenylCO(4''-OnC5H11)}-[Orn(4R-OH,5R-OCH2CH2NMe3+)]T[Hyp][hTyr(3S-OH,4S-OH)]T[Pro(3S-OH,4S-Me)]; lactam 1-C), the “Appearance after 1.5 mL added to (A) 5 mL 0.9% saline solution” value [1] is reported as “clear”, the “Time the formulated solution remained soluble in PBS” value [2] is reported as “at least 1 hour” and the “Incidence of tail vein irritation” value (Sprague Dawley rats; Days 1-3, first vehicle (1.75% Tween 80 and 5% Dextrose for CD101 acetate; 5% Dextrose for Eraxis), Eraxis 40 mg/kg/day, CD101 acetate 6 and 20 mg/kg/day, males and females) is reported as “highest”. For the same compound, the “Vein irritation compared to Groups 1, 3 and 4” value (Sprague Dawley rats; Days 5-14, second vehicle (5% Mannitol, 2.5% Tween 80, 0.3% Acetic Acid for CD101 acetate; 5% Mannitol and 0.3% Acetic Acid for Eraxis), Eraxis 40 mg/kg/day, CD101 acetate 20 mg/kg/day) was “only marginally higher”, the “Animals that did not receive ten consecutive days of treatment (Days 5-14)” value (Sprague Dawley rats; high dose 20 mg/kg/day (Group 5), second vehicle 5% Mannitol/2.5% Tween 80/0.3% acetic acid) was 90% and the “Animals that did not receive ten consecutive days of treatment (Days 5-14)” value (Sprague Dawley rats; low dose 2 mg/kg/day (Group 3), second vehicle 5% Mannitol/2.5% Tween 80/0.3% acetic acid) was 10%. The “Animals that did not receive ten consecutive days of treatment (Days 5-14)” value (Sprague Dawley rats; mid-dose 6 mg/kg/day (Group 4), second vehicle 5% Mannitol/2.5% Tween 80/0.3% acetic acid) was 10%, the “Animals dosed for less than the intended ten-day duration (Days 5-14) as a result of tail swelling/lesions” value (Sprague Dawley rats; males, high dose 20 mg/kg/day (Group 5), second vehicle 5% Mannitol/2.5% Tween 80/0.3% acetic acid) was 30% and the solubility ([3]; 15 mM potassium chloride, saline or isotonic, Potassium chloride (15 mM), read-out: Solubility) was over 1.7 mg/mL. The solubility ([3]; 50 mM acetate buffer with 0.4% Tween 20, aqueous with cosolvent or surfactant or cyclodextrin, 50 mM Acetate buffer pH 4.5 with 0.4% Tween 20, maximum solubility not reached, read-out: Solubility) was over 31.3 mg/mL, the solubility ([3]; 100 mM lactate buffer, aqueous buffer, Lactate buffer (100 mM), pH 6.5, maximum solubility not reached, read-out: Solubility) was over 48 mg/mL and the solubility ([3]; 100 mM lactate buffer, aqueous buffer, Lactate buffer (100 mM), pH 7.4, maximum solubility not reached, read-out: Solubility) was over 51 mg/mL. The solubility ([3]; 100 mM phosphate buffer, pH 7.4, aqueous buffer, read-out: Solubility) was 0.007 to 0.01 mg/mL, the solubility ([3]; 150 mM KCl, saline or isotonic, KCl (150 mM), read-out: Solubility) was under 0.2 mg/mL and the solubility ([3]; 150 mM potassium chloride, saline or isotonic, Potassium chloride (150 mM), read-out: Solubility) was 0.16 mg/mL. For the same compound, the solubility ([3]; 0.9% saline with 0.125% Tween 80, aqueous with cosolvent or surfactant or cyclodextrin, 0.9% Saline (USP) with 0.125% Tween 80, read-out: Solubility) was over 0.8 mg/mL, the solubility ([3]; 0.9% saline with 0.5% Tween 80, aqueous with cosolvent or surfactant or cyclodextrin, 0.9% Saline (USP) with 0.5% Tween 80, read-out: Solubility) was over 3.5 mg/mL and the solubility ([3]; 0.9% saline with 1% Tween 20, aqueous with cosolvent or surfactant or cyclodextrin, 0.9% Saline (USP) with 1% Tween 20, maximum solubility not reached, read-out: Solubility) was over 2.6 mg/mL. It also gave a solubility ([3]; 0.9% saline with 2.5% Tween 80, aqueous with cosolvent or surfactant or cyclodextrin, 0.9% Saline (USP) with 2.5% Tween 80 (polysorbate 80), read-out: Solubility) of over 3.5 mg/mL, a solubility ([3]; 0.9% saline with 4% dodecylmaltoside and 1% Tween 20, aqueous with cosolvent or surfactant or cyclodextrin, 0.9% Saline Solution (USP), 4% dodecylmaltoside (DDM), 1% Tween 20, maximum solubility not reached, read-out: Solubility) of over 10 mg/mL and a solubility ([3]; 0.9% saline with 7% tetradecylmaltoside, aqueous with cosolvent or surfactant or cyclodextrin, 0.9% Saline Solution (USP), 7% tetradecylmaltoside (TDM), maximum solubility not reached, read-out: Solubility) of over 11 mg/mL. For the same compound, the Solubility in words ([3]; PBS buffer) was “nearly insoluble”, the solubility ([3]; PBS buffer with 2.5% Tween 80, pH 7.4, aqueous with cosolvent or surfactant or cyclodextrin, read-out: Solubility) was over 4 mg/mL and the solubility ([3]; Water (USP), maximum solubility not reached, read-out: Solubility) was over 100 mg/mL. For the same compound, the solubility ([3]; aqueous buffer, 100 mM Tris buffer, pH 7.4, maximum solubility not reached, read-out: Solubility) was over 52 mg/mL, the solubility ([3]; aqueous buffer, 1:10 diluted PBS buffer, pH 7.4, maximum solubility not reached, read-out: Solubility) was over 2.1 mg/mL and the solubility ([3]; aqueous buffer, 5% Citric Acid, maximum solubility not reached, read-out: Solubility) was over 18.6 mg/mL. The solubility ([3]; aqueous buffer, 50-100 mM Acetate buffer, pH 4.5, maximum solubility not reached, read-out: Solubility) was over 45 mg/mL, the solubility ([3]; aqueous buffer, Phosphate buffered saline (PBS buffer), pH 7.4, read-out: Solubility) was 0.005 to 0.007 mg/mL and the solubility ([3]; aqueous with cosolvent or surfactant or cyclodextrin, 0.3% acetic acid, 5% mannitol, 2.5% Tween 80, pH 4.5, maximum solubility not reached, read-out: Solubility) was over 15 mg/mL. The solubility ([3]; aqueous with cosolvent or surfactant or cyclodextrin, 0.85% Tween 80 in PBS buffer, pH 7.4, maximum solubility not reached, read-out: Solubility) was over 4.1 mg/mL, the solubility ([3]; aqueous with cosolvent or surfactant or cyclodextrin, 2.5% Tween 80, 5% mannitol, 0.3% acetic acid, pH 4.5, maximum solubility not reached, read-out: Solubility) was over 16 mg/mL and the solubility ([3]; aqueous with cosolvent or surfactant or cyclodextrin, Lactated Ringer's Solution for Injection (USP), prepared from stock in USP water with 0.7% Tween 20, maximum solubility not reached, read-out: Solubility) was over 0.8 mg/mL. The solubility ([3]; aqueous with cosolvent or surfactant or cyclodextrin, PBS buffer with 1% Tween 20, pH 7.4, maximum solubility not reached, read-out: Solubility) was over 0.37 mg/mL, the solubility ([3]; saline or isotonic, 0.09% Saline, maximum solubility not reached, read-out: Solubility) was over 1.4 mg/mL and the solubility ([3]; saline or isotonic, 0.225% Saline (USP), maximum solubility not reached, read-out: Solubility) was over 1.2 mg/mL. The solubility ([3]; saline or isotonic, 0.45% Saline (USP), maximum solubility not reached, read-out: Solubility) was over 1.3 mg/mL, the solubility ([3]; saline or isotonic, 0.9% Saline (USP), read-out: Solubility) was under 0.18 mg/mL and the solubility ([3]; saline or isotonic, 5% D-Mannitol, maximum solubility not reached, read-out: Solubility) was over 4 mg/mL. For the same compound, the solubility ([3]; saline or isotonic, 5% Dextrose Solution (USP), maximum solubility not reached, read-out: Solubility) was over 12 mg/mL, the solubility ([3]; saline or isotonic, 5% dextrose, 5% mannitol and 0.22%-0.45% Sterile Saline Solution, read-out: Solubility (soluble)) was over 1 mg/mL and the solubility ([3]; saline or isotonic, Lactated Ringer's Solution for Injection (USP), read-out: Solubility) was under 0.1 mg/mL. The “Appearance upon PBS drop test” value ([4]; 0.3% acetic acid, 1.25% Tween 80 and 5% mannitol, pH 4.5, 6.0 mg/mL, 1.4 mg/mL in PBS) was “Clear”, the “Appearance upon PBS drop test” value ([4]; 0.3% acetic acid, 2.5% Tween 80 and 5% mannitol, pH 4.5, 4 mg/mL, 0.92 mg/mL in PBS) was “Clear” and the “Appearance upon PBS drop test” value ([4]; 0.3% acetic acid, 2.5% Tween 80 and 5% mannitol, pH 4.5, 6.0 mg/mL, 1.4 mg/mL in PBS) was “Clear”. The “Appearance upon PBS drop test” value ([4]; 0.3% acetic acid, 2.5% Tween 80 and 5% mannitol, pH 4.5, 8.0 mg/mL, 1.8 mg/mL in PBS) was “Clear”, the “Appearance upon PBS drop test” value ([4]; 0.9% Saline, pH 5.3, 2.8% Tween 80, 4 mg/mL) was “Clear” and the “Appearance upon PBS drop test” value ([4]; 0.9% Saline, pH 6.6, 2.5% Tween 80, 4 mg/mL) was “Clear”. For the same compound, the “Appearance upon PBS drop test” value ([4]; 0.9% Saline, pH 7.2, 1.75% Tween 80, 4 mg/mL) was “Clear”, the “Appearance upon PBS drop test” value ([4]; 0.9% Saline, pH 7.2, 2.5% Tween 80, 4 mg/mL) was “Clear” and the “Appearance upon PBS drop test” value ([4]; 0.9% Saline, reverse addition (CD101 acetate and Tween 80 mixed first, then saline added), 1.75% Tween 80, 4 mg/mL) was “Clear”. The “Appearance upon PBS drop test” value ([4]; 5% Mannitol/25 mM Na Acetate, pH 4.63, 2.5% Tween 80, 4 mg/mL) was “Clear”, the “Appearance upon PBS drop test” value ([4]; 5% Mannitol/30 mM Na Lactate, pH 5.45, 2.5% Tween 80, 4 mg/mL) was “Clear” and the “Appearance upon PBS drop test” value ([4]; 5% Mannitol/0.3% Acetic Acid, pH 3.54, 2.5% Tween 80, 4 mg/mL) was “Clear”. For the same compound, the “Appearance upon PBS drop test” value ([4]; PBS buffer pH 7.4, pH 7.13, 1.75% Tween 80, 4 mg/mL) was “Clear”.

Source: patent publication US11819533B2, “Compositions and methods for the treatment of fungal infections” (Cidara Therapeutics, Inc., priority 2017, dated 2023)
